In patent US5281604A, “Angiotensin II receptor blocking 2,3,6-substituted quinazolinones” (American Cyanamid Company, priority 1993, dated 1994):

Target: T1, Angiotensin II Receptor (Bos taurus, UniProt P25104)
T1 construct: beef adrenal glands are processed as follows: fresh adrenal glands received on crushed ice are cleaned of fatty tissues; tissue Maxwell-Cohen (local slaughter house); host or cells: beef adrenal cortex, microsomal membranes (100,000×g pellet)
T1 sequence (P25104 1-359): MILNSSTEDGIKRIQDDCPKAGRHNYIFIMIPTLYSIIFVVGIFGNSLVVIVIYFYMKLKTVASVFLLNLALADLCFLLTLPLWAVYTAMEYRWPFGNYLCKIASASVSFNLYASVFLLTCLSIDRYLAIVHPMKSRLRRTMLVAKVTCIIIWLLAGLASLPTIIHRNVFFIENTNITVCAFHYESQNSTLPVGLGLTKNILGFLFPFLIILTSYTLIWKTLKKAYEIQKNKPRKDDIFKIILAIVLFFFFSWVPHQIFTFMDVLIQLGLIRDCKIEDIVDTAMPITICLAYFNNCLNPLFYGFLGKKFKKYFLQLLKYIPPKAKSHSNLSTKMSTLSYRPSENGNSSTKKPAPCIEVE
Experiment: Receptor Binding Assay: displacement of [125I](Sar1,Ile8)AngII from beef adrenal cortex microsomal membranes
Settings: 60 min room temperature
Text: Beef adrenals are obtained from a local slaughter house (Maxwell-Cohen).
[^125 I](Sar^1,Ile^8)AngII, S.A. 2200 Ci/mmole, is purchased from Dupont (NEN®, Boston, Mass.). All unlabeled AngII analogs, Dimethylsulfoxide (DMSO), nucleotides, bovine serum albumin (BSA) are purchased from Sigma Chemical Co., St. Louis, Mo. U.S.A.
Approximately sixteen (16) to twenty (20) beef adrenal glands are processed as follows: fresh adrenal glands received on crushed ice are cleaned of fatty tissues and the tough membranes encapsulating the glands are removed and discarded. The brownish tissue forming the adrenal cortex is scraped off and finely minced with scissors before homogenization. Care is taken to avoid contamination with medullary tissue during dissection. The scraped cortices are suspended in twenty volumes of an ice-cold buffer medium consisting of 10 mM Tris.HCl (pH 7.4 at 22° C.) and containing 1.0 mM EDTA and 0.2M sucrose. Unless otherwise indicated, all subsequent operations are done at 4° C. […] The homogenate is centrifuged first at low speed (3,000×g) for 10 min. The resulting pellet is discarded and the supernatant fluid recentrifuged at 10,000×g for 15 minutes to give a P2 pellet. This P2 pellet is discarded and the liquid phase is carefully decanted off in clean centrifuge tubes and recentrifuged at high speed (100,000×g) for 60 min. The translucent final pellet is harvested and combined in a small volume (20-50.0 ml) of 50.0 mM Tris.HCl buffer, pH 7.2. A 100 ul aliquot is withdrawn and the protein content of the preparation is determined by the Lowry's method (Lowry, O. H., Rosebrough, N. F., Farr, A. L. and Randall, R. J., Protein measurement with Folin phenol reagent. J. Biol. Chem., […], 265-275, 1951). The pelleted membrane is reconstituted in 50.0 mM Tris.HCl buffer containing 0.1 mM of phenylmethylsulfonyl fluoride (PMSF) to give approximately a protein concentration of 2.5 mg per ml of tissue suspension. The membrane preparation is finally aliquoted in 1.0 ml volumes and stored at -70° C. until use in the binding assays.
The binding of [^125 I](Sar^1.Ile^8)AngII to microsomal membranes is initiated by the addition of reconstituted membranes (1:10 vols.) in freshly made 50.0 mM Tris.HCl buffer, pH 7.4 containing 0.25% heat inactivated bovine serum albumin (BSA): 80 ul membrane protein (10 to 20 ug/assay) to wells already containing 100 ul of incubation buffer (as described above) and 20 ul [^125 I](Sar^1,Ile^8)AmgII (Specific Activity, 2200 Ci/mmole) Non-specific binding is measured in the presence of 1.0 uM unlabeled (Sar^1,Ile^8)AngII, added in 20 ul volume. Specific binding for [^125 I](Sar^1,Ile^8) AngII is greater than 90%. In competition studies, experimental compounds are diluted in dimethylsulfoxide (DMSO) and added in 20 ul to wells before the introduction of tissue membranes. This concentration of DMSO is found to have no negative effects on the binding of [^ 125I] (Sar^1,Ile^8) AngII to the membranes. Assays are performed in triplicate. The wells are left undisturbed for 60 min. at room temperature. […] Presoaking the filter sheet in 0.1% polyethyleneimine in normal saline (PEI/Saline) greatly reduces the radioactivity retained by the filter blanks. […] The filters are removed from the filter grid and counted in a Parkard® Cobra Gamma Counder for 1 min. […] The binding data are analyzed by the non-linear interactive "LUNDON-1" program (LUNDON SOFTWARE Inc., Cleveland, Ohio U.S.A.).

IC50	SMILES
100 nM	CCCCc1nc2ccc(C3CC4C(c5ccc(C)cc5)=NOC4O3)cc2c(=O)n1Cc1ccc(-c2ccccc2-c2nnn[nH]2)cc1 (stereo not shown) [Example 12]
50 nM	CCCCc1nc2ccc([C@H]3OC[C@H]4[C@@H]3ON3[C@@H]4CCC3(C)C)cc2c(=O)n1Cc1ccc(-c2ccccc2-c2nnn[nH]2)cc1 (relative stereo) [Example 7, (1α, 3aα, 8aβ, 8bα)-2-Butyl-6-(octahydro-6,6-dimethylfuro[3,4-d]pyrrolo[1,2-b]isoxazol-1-yl)-3-[[2'-(1H-tetrazol-5-yl)[1,1'-biphenyl]-4-yl]methyl]-4 (3H)-quinazolinone]
31.9 nM	CCCCc1nc2ccc(C3CC4C(O3)ON3C4CCC3(C)C)cc2c(=O)n1Cc1ccc(-c2ccccc2-c2nnn[nH]2)cc1 (stereo not shown) [Example 14]
76 nM	CCCCc1nc2ccc(C3CC4C(O3)ON(c3ccccc3)C4c3ccccc3)cc2c(=O)n1Cc1ccc(-c2ccccc2-c2nnn[nH]2)cc1 (stereo not drawn) [Example 10, (3α, 3aβ, 5β, 6aβ)-2-Butyl-6-(hexahydro-2,3-diphenylfuro[3,2-d]isoxazol-5-yl)-3-[[2'-(1H-tetrazol-5-yl)[1,1'-biphenyl]-4-yl]methyl]-4(3H)-quinazolinone]
